Assay: relative permittivity at zero frequency (dimensionless); xn = mol fraction of the nth substance listed
Conditions: 100 kPa, Liquid, Dielectrometer

CCC(C)O (stereo not given) [butan-2-ol] + CCCCO
relative permittivity at zero frequency
Conditions | 288.15 K | 293.15 K | 298.15 K | 303.15 K | 308.15 K
x1 = 0.0501 | 18.97 | 18.24 | 17.54 | 16.86 | 16.21
x1 = 0.0987 | 18.93 | 18.2 | 17.49 | 16.81 | 16.16
x1 = 0.1506 | 18.89 | 18.15 | 17.44 | 16.76 | 16.1
x1 = 0.1998 | 18.86 | 18.11 | 17.4 | 16.71 | 16.05
x1 = 0.2503 | 18.82 | 18.07 | 17.35 | 16.65 | 15.99
x1 = 0.2986 | 18.79 | 18.03 | 17.3 | 16.6 | 15.93
x1 = 0.3512 | 18.75 | 17.99 | 17.25 | 16.54 | 15.87
x1 = 0.3977 | 18.72 | 17.95 | 17.2 | 16.49 | 15.81
x1 = 0.4497 | 18.69 | 17.91 | 17.16 | 16.43 | 15.74
x1 = 0.4998 | 18.67 | 17.87 | 17.11 | 16.37 | 15.68
x1 = 0.5501 | 18.64 | 17.83 | 17.06 | 16.32 | 15.61
x1 = 0.6011 | 18.61 | 17.79 | 17.01 | 16.26 | 15.54
x1 = 0.649 | 18.59 | 17.76 | 16.96 | 16.2 | 15.47
x1 = 0.7005 | 18.57 | 17.72 | 16.91 | 16.14 | 15.4
x1 = 0.7511 | 18.55 | 17.68 | 16.86 | 16.07 | 15.32
x1 = 0.7986 | 18.53 | 17.65 | 16.81 | 16.01 | 15.25
x1 = 0.8498 | 18.51 | 17.62 | 16.76 | 15.95 | 15.17
x1 = 0.9006 | 18.5 | 17.58 | 16.71 | 15.88 | 15.09
x1 = 0.9487 | 18.48 | 17.55 | 16.66 | 15.82 | 15.01
x1 = 1 | 18.47 | 17.51 | 16.6 | 15.75 | 14.94

CC(C)CO [2-methyl-1-propanol] + CCC(C)O
relative permittivity at zero frequency
Conditions | 288.15 K | 293.15 K | 298.15 K | 303.15 K | 308.15 K
x2 = 0 | 19.51 | 18.71 | 17.96 | 17.23 | 16.53
x2 = 0.0488 | 19.46 | 18.66 | 17.9 | 17.17 | 16.47
x2 = 0.1011 | 19.41 | 18.61 | 17.85 | 17.11 | 16.4
x2 = 0.1488 | 19.36 | 18.55 | 17.78 | 17.05 | 16.34
x2 = 0.2005 | 19.31 | 18.49 | 17.72 | 16.98 | 16.27
x2 = 0.2489 | 19.25 | 18.43 | 17.66 | 16.92 | 16.2
x2 = 0.3013 | 19.2 | 18.38 | 17.59 | 16.85 | 16.13
x2 = 0.3511 | 19.14 | 18.31 | 17.53 | 16.78 | 16.05
x2 = 0.3993 | 19.09 | 18.25 | 17.46 | 16.7 | 15.97
x2 = 0.4473 | 19.03 | 18.19 | 17.39 | 16.63 | 15.89
x2 = 0.4984 | 18.98 | 18.13 | 17.32 | 16.56 | 15.81
x2 = 0.5512 | 18.92 | 18.06 | 17.25 | 16.48 | 15.73
x2 = 0.5999 | 18.87 | 18 | 17.18 | 16.4 | 15.65
x2 = 0.649 | 18.81 | 17.94 | 17.1 | 16.32 | 15.56
x2 = 0.7017 | 18.76 | 17.88 | 17.03 | 16.24 | 15.48
x2 = 0.7502 | 18.71 | 17.81 | 16.96 | 16.16 | 15.39
x2 = 0.7989 | 18.66 | 17.75 | 16.89 | 16.08 | 15.3
x2 = 0.851 | 18.61 | 17.69 | 16.81 | 16 | 15.21
x2 = 0.9003 | 18.56 | 17.63 | 16.74 | 15.92 | 15.12
x2 = 0.9499 | 18.51 | 17.57 | 16.67 | 15.83 | 15.03

CC(C)CO [2-methyl-1-propanol] + CC(C)(C)O
relative permittivity at zero frequency
Conditions | 288.15 K | 293.15 K | 298.15 K | 303.15 K | 308.15 K
x2 = 0 | 19.51 | 18.71 | 17.96 | 17.23 | 16.53
x2 = 0.0497 | 19.46 | 18.65 | 17.85 | 17.09 | 16.37
x2 = 0.0999 | 19.37 | 18.52 | 17.74 | 16.96 | 16.21
x2 = 0.1502 | 19.24 | 18.38 | 17.57 | 16.78 | 16.05
x2 = 0.2002 | 19.09 | 18.24 | 17.43 | 16.62 | 15.84
x2 = 0.2497 | 18.94 | 18.08 | 17.25 | 16.42 | 15.63
x2 = 0.2998 | 18.78 | 17.89 | 17.08 | 16.22 | 15.44
x2 = 0.3507 | 18.6 | 17.71 | 16.88 | 16.01 | 15.2
x2 = 0.4003 | 18.43 | 17.53 | 16.7 | 15.8 | 14.97
x2 = 0.4497 | 18.26 | 17.36 | 16.49 | 15.57 | 14.74
x2 = 0.4998 | 18.11 | 17.15 | 16.3 | 15.34 | 14.47
x2 = 0.5501 | 17.93 | 16.96 | 16.07 | 15.07 | 14.22
x2 = 0.6012 | 17.74 | 16.74 | 15.83 | 14.8 | 13.93
x2 = 0.649 | 17.53 | 16.5 | 15.58 | 14.52 | 13.61
x2 = 0.7003 | 17.3 | 16.24 | 15.28 | 14.2 | 13.27
x2 = 0.751 | 17.02 | 15.93 | 14.96 | 13.84 | 12.91
x2 = 0.8007 | 16.68 | 15.59 | 14.59 | 13.46 | 12.49
x2 = 0.8499 | 16.3 | 15.17 | 14.17 | 13.03 | 12.06
x2 = 0.9002 | 15.8 | 14.67 | 13.69 | 12.53 | 11.55
x2 = 0.9489 | 15.21 | 14.08 | 13.13 | 11.97 | 11.01
